Laboratory results reported in patent publication US10556902B2 (Asceneuron SA, priority 2016, dated 2020).

Molecular target: His-Tagged hOGA (human O-GlcNAcase) (Homo sapiens (Human), UniProt O60502)
Experiment: Human O-GlcNAcase enzyme inhibition assay;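 note: reactions contained 20 nM His-tagged hOGA enzyme with 10 µM FL-GlcNAc substrate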
Type: biochemical
Details: OGA IC50 (M), FL-GlcNAc substrate, pH 6.5, activity classes defined in μM
Method: Then, 20 nM of His-Tagged hOGA and 10 μM of FL-GlcNAc (Fluorescein mono-beta-D-(2-deoxy-2-N-acetyl) glucopyranoside; Marker Gene Technologies Inc, M1485) were added to the 384-well plate for a final volume of 20 μl.

Sequence of His-Tagged hOGA (human O-GlcNAcase) (O60502 whole entry): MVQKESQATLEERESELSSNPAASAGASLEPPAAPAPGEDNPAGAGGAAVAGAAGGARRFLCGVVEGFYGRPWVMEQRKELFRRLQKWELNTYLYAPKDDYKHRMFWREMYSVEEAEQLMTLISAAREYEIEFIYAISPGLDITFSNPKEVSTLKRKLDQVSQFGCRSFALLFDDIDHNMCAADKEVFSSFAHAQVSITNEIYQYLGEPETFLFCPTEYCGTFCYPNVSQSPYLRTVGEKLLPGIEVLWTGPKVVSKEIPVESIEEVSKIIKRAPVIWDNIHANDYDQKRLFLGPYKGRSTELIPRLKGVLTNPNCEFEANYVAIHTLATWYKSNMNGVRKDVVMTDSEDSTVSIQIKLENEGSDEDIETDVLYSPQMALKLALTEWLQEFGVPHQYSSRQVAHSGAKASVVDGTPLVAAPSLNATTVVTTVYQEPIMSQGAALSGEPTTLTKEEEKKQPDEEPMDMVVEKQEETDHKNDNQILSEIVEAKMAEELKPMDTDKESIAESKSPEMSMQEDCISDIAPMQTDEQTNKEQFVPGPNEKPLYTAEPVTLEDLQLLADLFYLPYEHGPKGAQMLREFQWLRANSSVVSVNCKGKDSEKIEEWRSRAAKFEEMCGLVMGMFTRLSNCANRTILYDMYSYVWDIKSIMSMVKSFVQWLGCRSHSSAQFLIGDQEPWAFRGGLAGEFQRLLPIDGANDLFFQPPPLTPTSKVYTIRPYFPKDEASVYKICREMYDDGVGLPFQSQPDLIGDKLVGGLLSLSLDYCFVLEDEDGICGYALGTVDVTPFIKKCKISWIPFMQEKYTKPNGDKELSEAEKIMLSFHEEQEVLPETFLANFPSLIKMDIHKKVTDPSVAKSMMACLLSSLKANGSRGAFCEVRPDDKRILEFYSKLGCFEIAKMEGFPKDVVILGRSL

Compound | IC50
CC(c1ccc2nccnc2c1)N1CCN(c2ccc(=O)[nH]n2)CC1 (stereo not drawn) [Example 39] | 5e-08 to 2e-07 M

Same assay, conditions: OGA enzyme inhibition assay; FL-GlcNAc substrate, pH 6.5; activity classes defined in μM; read-out: OGA IC50

IC50 | Compound
2e-07 to 1e-06 M | CC(c1ccc2nccnc2c1)N1CCN(c2nnc(CO)s2)CC1 (racemic) [Example 37, (5-(4-(1-(quinoxalin-6-yl)ethyl)piperazin-1-yl)-1,3,4-thiadiazol-2-yl)methanol]
1e-06 to 1e-05 M | CC(=O)Nc1nnc(N2CCN(C(C)c3ccc4c(c3)OCC4)CC2)s1 (single isomer, unassigned) [Example 108]
< 5e-08 M | COC(=O)c1cnc(N2CCN(C(C)c3ccc4scnc4c3)CC2)nc1 (racemic) [Example 95, Methyl 2-(4-(1-(benzo[d]thiazol-5-yl)ethyl)piperazin-1-yl)pyrimidine-5-carboxylate]
5e-08 to 2e-07 M | CC(c1ccc2nccnc2c1)N1CCN(c2ccc(C(O)C(F)(F)F)cn2)CC1 (racemic) [Example 56, 2,2,2-trifluoro-1-(6-(4-(1-(quinoxalin-6-yl)ethyl)piperazin-1-yl)pyridin-3-yl)ethan-1-ol]
< 5e-08 M | CC(c1ccc2c(c1)OCC2)N1CCN(c2nc3c(s2)CN(C)CC3)CC1 (racemic) [Example 16, 2-(4-(1-(2,3-dihydrobenzofuran-6-yl)ethyl)piperazin-1-yl)-5-methyl-4,5,6,7-tetrahydrothiazolo[5,4-c]pyridine]
5e-08 to 2e-07 M | CC(c1ccc2cccnc2n1)N1CCN(c2ncc(C(F)(F)F)cn2)CC1 (racemic) [Example 92, 2-(1-(4-(5-(trifluoromethyl)pyrimidin-2-yl)piperazin-1-yl)ethyl)-1,8-naphthyridine]
2e-07 to 1e-06 M | CC(c1ccc2nccnc2c1)N1CCC(c2n[nH]c(=O)o2)CC1 (racemic) [Example 22, 5-(1-(1-(quinoxalin-6-yl)ethyl)piperidin-4-yl)-1,3,4-oxadiazol-2(3H)-one]
< 5e-08 M | CC(c1ccc2c(c1)OCC2)N1CCN(c2ncc(C3(O)COC3)cn2)CC1 (racemic) [Example 82, 3-(2-(4-(1-(2,3-dihydrobenzofuran-6-yl)ethyl)piperazin-1-yl)pyrimidin-5-yl)oxetan-3-ol]
< 5e-08 M | CC(C)C(O)c1ccc(N2CCN(C(C)c3ccc4c(c3)OCC4)CC2)nc1 (racemic) [Example 49, 1-(6-(4-(1-(2,3-dihydrobenzofuran-6-yl)ethyl)piperazin-1-yl)pyridin-3-yl)-2-methylpropan-1-ol]
< 5e-08 M | CC(c1ccc2c(c1)OCC2)N1CCN(c2nnc(C(=O)N(C)C)s2)CC1 (racemic) [Example 119, 5-(4-(1-(2,3-dihydrobenzofuran-6-yl)ethyl)piperazin-1-yl)-N,N-dimethyl-1,3,4-thiadiazole-2-carboxamide]
< 5e-08 M | CC(c1ccc2scnc2c1)N1CCN(c2ncc(CO)cn2)CC1 (racemic) [Example 73, (2-(4-(1-(benzo[d]thiazol-5-yl)ethyl)piperazin-1-yl)pyrimidin-5-yl)methanol]
< 5e-08 M | CNC(=O)c1cnc(N2CCN(C(C)c3ccc4scnc4c3)CC2)nc1 (racemic) [Example 96, 2-(4-(1-(benzo[d]thiazol-5-yl)ethyl)piperazin-1-yl)-N-methylpyrimidine-5-carboxamide]
< 5e-08 M | CC(c1ccc2c(c1)OCC2)N1CCN(c2ccc(C(=O)O)cn2)CC1 (racemic) [Example 65, 6-(4-(1-(2,3-Dihydrobenzofuran-6-yl)ethyl)piperazin-1-yl)nicotinic acid]
5e-08 to 2e-07 M | CC(C)C(O)c1cnc(N2CCN(C(C)c3ccc4nccnc4c3)CC2)nc1 (racemic) [Example 88, 2-methyl-1-(2-(4-(1-(quinoxalin-6-yl)ethyl)piperazin-1-yl)pyrimidin-5-yl) propan-1-ol]
< 5e-08 M | COC(=O)c1ccc(N2CCN(C(C)c3ccc4c(c3)OCC4)CC2)nc1 (racemic) [Example 62, Methyl 6-(4-(1-(2,3-dihydrobenzofuran-6-yl)ethyl)piperazin-1-yl)nicotinate]
2e-07 to 1e-06 M | CC(c1ccc2nccnc2c1)N1CCN(c2ccc(=O)[nH]c2)CC1 (racemic) [Example 54, 5-(4-(1-(quinoxalin-6-yl)ethyl)piperazin-1-yl)pyridin-2(1H)-one]
< 5e-08 M | CC(=O)NC(C)(C)c1cnc(N2CCN(C(C)c3ccc4c(c3)OCC4)CC2)nc1 (racemic) [Example 104]
< 5e-08 M | CNC(=O)c1nnc(N2CCN(C(C)c3ccc4c(c3)OCC4)CC2)s1 (racemic) [Example 118, 5-(4-(1-(2,3-dihydrobenzofuran-6-yl)ethyl)piperazin-1-yl)-N-methyl-1,3,4-thiadiazole-2-carboxamide]
< 5e-08 M | CC(c1ccc2c(c1)OCC2)N1CCN(c2ncc(C3(O)CCOC3)cn2)CC1 (racemic) [Example 79, 3-(2-(4-(1-(2,3-dihydrobenzofuran-6-yl)ethyl)piperazin-1-yl)pyrimidin-5-yl)tetrahydrofuran-3-ol]
< 5e-08 M | CC(=O)NCc1nnc(N2CCN(C(C)c3ccc4c(c3)OCC4)CC2)s1 (racemic) [Example 110]
< 5e-08 M | CC(c1ccc2c(c1)OCC2)N1CCN(c2ccc(C(O)C(F)(F)F)cn2)CC1 (racemic) [Example 50, 1-(6-(4-(1-(2,3-dihydrobenzofuran-6-yl)ethyl)piperazin-1-yl)pyridin-3-yl)-2,2,2-trifluoroethan-1-ol]
2e-07 to 1e-06 M | Cc1ccc(N2CCN(C(C)c3ccc4nccnc4c3)CC2)nn1 (racemic) [Example 44, 6-(1-(4-(6-Methylpyridazin-3-yl)piperazin-1-yl)ethyl)quinoxaline]
5e-08 to 2e-07 M | CC(c1ccc2nccnc2c1)N1CCN(c2ncc(CO)cn2)CC1 (racemic) [Example 86, (2-(4-(1-(Quinoxalin-6-yl)ethyl)piperazin-1-yl)pyrimidin-5-yl) methanol]
< 5e-08 M | CC(c1ccc2c(c1)OCC2)N1CCN(c2ccc(C(F)(F)F)nn2)CC1 (racemic) [Example 40, 3-(4-(1-(2,3-dihydrobenzofuran-6-yl)ethyl)piperazin-1-yl)-6-(trifluoromethyl)pyridazine]
< 5e-08 M | CC(O)c1ccc(N2CCN(C(C)c3ccc4c(c3)OCC4)CC2)nc1 (racemic) [Example 47, 1-(6-(4-(1-(2,3-dihydrobenzofuran-6-yl)ethyl)piperazin-1-yl)pyridin-3-yl)ethan-1-ol]
< 5e-08 M | CC(c1ccc2c(c1)OCC2)N1CCN(c2ncc(C(O)C(F)(F)F)cn2)CC1 (racemic) [Example 77, 1-(2-(4-(1-(2,3-dihydrobenzofuran-6-yl)ethyl)piperazin-1-yl)pyrimidin-5-yl)-2,2,2-trifluoroethan-1-ol]

Compound | IC50
CC(c1ccc2nccnc2c1)N1CCN(c2ncc(C(C)(C)O)cn2)CC1 (racemic) [Example 85, 2-(2-(4-(1-(quinoxalin-6-yl)ethyl)piperazin-1-yl)pyrimidin-5-yl) propan-2-ol] | 5e-08 to 2e-07 M
CCOC(=O)c1nnc(N2CCN(C(C)c3ccc4nccnc4c3)CC2)s1 (racemic) [Example 120, Ethyl 5-(4-(1-(quinoxalin-6-yl)ethyl)piperazin-1-yl)-1,3,4-thiadiazole-2-carboxylate] | 1e-06 to 1e-05 M
CC(c1ccc2c(c1)OCC2)N1CCN(c2nc3c(s2)CNCC3)CC1 (racemic) [Example 15, 2-(4-(1-(2,3-dihydrobenzofuran-6-yl)ethyl)piperazin-1-yl)-4,5,6,7-tetrahydrothiazolo[5,4-c]pyridine] | < 5e-08 M
CC(c1ccc2nccnc2c1)N1CCN(c2nc3c(s2)CNCC3)CC1 (racemic) [Example 19, 2-(4-(1-(quinoxalin-6-yl)ethyl)piperazin-1-yl)-4,5,6,7-tetrahydrothiazolo[5,4-c]pyridine] | 5e-08 to 2e-07 M
CC(C)C(O)c1ccc(N2CCN(C(C)c3ccc4nccnc4c3)CC2)nc1 (racemic) [Example 55, 2-methyl-1-(6-(4-(1-(quinoxalin-6-yl)ethyl)piperazin-1-yl)pyridin-3-yl)propan-1-ol] | 2e-07 to 1e-06 M
CC(c1ccc2nccnc2c1)N1CCN(c2nnc(CN)s2)CC1 (racemic) [Example 126, (5-(4-(1-(quinoxalin-6-yl)ethyl)piperazin-1-yl)-1,3,4-thiadiazol-2-yl)methanamine] | 2e-07 to 1e-06 M
CNC(=O)c1cccc(N2CCN(C(C)c3ccc4nccnc4c3)CC2)n1 (racemic) [Example 68, N-methyl-6-(4-(1-(quinoxalin-6-yl)ethyl)piperazin-1-yl) picolinamide] | 5e-08 to 2e-07 M
CC(c1ccc2c(c1)OCC2)N1CCC(n2cc(CO)cn2)CC1 (racemic) [Example 28, (1-(1-(1-(2,3-dihydrobenzofuran-6-yl)ethyl)piperidin-4-yl)-1H-pyrazol-4-yl) methanol] | 2e-07 to 1e-06 M
CC(c1ccc2c(c1)OCC2)N1CCC(n2cc(S(C)(=O)=O)cn2)CC1 (racemic) [Example 34, 1-(1-(2,3-dihydrobenzofuran-6-yl)ethyl)-4-(4-(methylsulfonyl)-1H-pyrazol-1-yl)piperidine] | 2e-07 to 1e-06 M
CC(c1ccc2nccnc2c1)N1CCN(c2cccc(C(=O)N(C)C)n2)CC1 (racemic) [Example 69, N, N-dimethyl-6-(4-(1-(quinoxalin-6-yl)ethyl)piperazin-1-yl) picolinamide] | 2e-07 to 1e-06 M
CNC(=O)c1nnc(N2CCN(C(C)c3ccc4nccnc4c3)CC2)s1 (racemic) [Example 121, N-methyl-5-(4-(1-(quinoxalin-6-yl)ethyl)piperazin-1-yl)-1,3,4-thiadiazole-2-carboxamide] | 2e-07 to 1e-06 M
CC(c1ccc2nccnc2c1)N1CCN(c2nc3c(s2)CN(C)CC3)CC1 (racemic) [Example 20, 5-Methyl-2-(4-(1-(quinoxalin-6-yl)ethyl)piperazin-1-yl)-4,5,6,7-tetrahydrothiazolo[5,4-c]pyridine] | 5e-08 to 2e-07 M
CC(c1ccc2nccnc2c1)N1CCN(c2ccc(I)nn2)CC1 (racemic) [Example 43] | 2e-07 to 1e-06 M
C[C@@H](c1cnc2cccnc2c1)N1CCN(c2ncc(C(F)(F)F)cn2)CC1 [Example 221] | 2e-07 to 1e-06 M
CC(c1ccc2nccnc2c1)N1CCN(c2ccc(C(F)(F)F)nn2)CC1 (racemic) [Example 42, 6-(1-(4-(6-(trifluoromethyl)pyridazin-3-yl)piperazin-1-yl)ethyl)quinoxaline] | 2e-07 to 1e-06 M
